Data reported in US5320948A, “Cephalosporin C acylase” (Fujisawa Pharmaceutical Co., Ltd., priority 1990, dated 1994).
Values joined by “and” are separate entries in the source; they are usually repeats but may differ in a detail not shown here. Identical values can stand only once. Like-named read-outs stand apart in the source and are kept apart here.

Tests used:
CC acylase N-176 [1] = assay: Determination of inhibition constants (Ki) for reaction products, GL-7ACA acylase activity; type: biochemical, Pseudomonas diminuta N-176; settings: for mode of inhibition: Lineweaver-Burk plots in absence and presence of inhibitor; for Ki: substrate GL-7ACA, 0.1M glycine buffer pH 9, 37° C., 3 min
Experimental: Enzyme activity was assayed in the presence of 7-ACA or glutaric acid. For determination of Ki of 7-ACA, reaction mixtures (200 μl) containing 0.1M glycine buffer (pH 9), 0.26-2.08 μmole of GL-7ACA, 0.182-1.0 μmole of 7-ACA and 1 μg of enzyme was incubated at 37° C. for 3 min. For determination of Ki of glutaric acid, reaction mixture (200 μl) containing 0.1M glycine buffer (pH 9), 0.096-2.08 μmole of GL-7ACA, 0.25-0.5 μmole of glutaric acid and 0.5 μg of the enzyme was incubated at 37° C. for 3 min. […] Ki values were calculated from the apparent Michaelis constants (Kmapp), Km and Vmax.

CC acylase N-176 [2] = assay: Substrate profile of CC acylase N-176, HPLC assay; type: biochemical, Pseudomonas diminuta N-176; settings: percentage compared to the activity for GL-7ACA; 2 mg substrate, 20 μg enzyme, pH 9, 50° C., 2 min
Experimental: (§1) Transformant colonies were picked up and grown overnight at 30° C. in 1 ml of 2% Bouillon (Eiken Chemical Co., Ltd., Japan) supplemented with 1 mM […] (IPTG: Sigma Chemical Co., Ltd., U.S.A.). Cells were harvested by centrifugation and resulting cell pellets were used for assay. Reaction mixture (200 μl) containing 100 mM phosphate (pH 8), 2 mg of GL-7ACA or cephalosporin C Na and cell pellets were thoroughly mixed and incubated for 10 min at 37° C. The reaction was terminated by the addition of 200 μl of 4% acetic acid. Samples were applied to a Inertsil ODS-2 column (4.6 mm×150 mm)(Gasukuro Kogyo Co., Ltd., Japan) and elution was performed with 0.567 g/l of Na2 PO4, 0.36 g/l of KH2 PO4 and 2-4% methanol. 7ACA was detected with absorption at 254 nm.
Enzyme activity was determined by HPLC assay. Reaction mixture (200 μl) containing 100 mM glycine buffer (pH 9), 2 mg of a substrate and 20 μg of the enzyme was incubated at 50° C. for 2 min and the reaction was terminated by addition of 4% acetic acid. The relative enzyme activity was expressed as a percentage compared to the activity for GL-7ACA. To be noted, acylase activity for cephalosporin C was examined also by detecting the production of α-aminoadipic acid with the amino acid analyzer (Hitachi Co., Ltd., Japan).

CC acylase N-176 [3] = type: biochemical, Pseudomonas diminuta N-176; settings: pH 9
Experimental: Effect of p-chloromercuribenzoate (pCMB, Sigma Chemical Co., Ltd.), phenylmethylsulfonyl fluoride (PMSF, Sigma) and ethylenediaminetetraacetic acid (EDTA, Nacalai Tesque Inc., Japan) on the activity of CC acylase N-176 was examined as follows. Four μg of CC acylase N-176 was treated at 37° C. for 4 hours with 0.1 or 1.0 mM pCMB, 0.1, 1.0, 2.0 or 5.0 mM PMSF, or 1.0 or 5.0 mM EDTA in 200 μl of 0.1M glycine buffer (pH 9). Residual activity of the treated enzyme was assayed by adding 22 μl of GL-7ACA (100 mg/ml) as a substrate to the mixture The reaction was performed at 37° C. for 2 min. Residual activity was expressed as a percentage compared to the activity of the enzyme treated with blank solution.

CC acylase N-176 [4] = assay: Specific enzyme activity, HPLC assay (Vmax and Km by Lineweaver-Burk plot); type: biochemical, Pseudomonas diminuta N-176; settings: substrate of CC acylase N-176, 100 mM glycine buffer pH 9, 37° C., 2 min; for Km: read-out: Michaelis constant (Km)
Experimental: as §1
The activity of the cephalosporin C acylase was determined by HPLC assay. Reaction mixtures (200 μl) containing 100 mM glycine buffer (pH 9), 1.25-40 mM Cephalosporin C Li and 19 μg of the enzyme is used for assay of cephalosporin C acylase, meanwhile for assay of GL-7ACA acylase activity, reaction mixture (200 μl) containing 100 mM glycine buffer (pH 9), 0.48-10.4 mM GL-7ACA and 0.5 μg of the enzyme is used. Reaction mixtures were incubated for 2 min at 37° C. and the reaction was terminated by addition of 200 μl of 4% acetic acid. Conditions for HPLC were the same as those described in Example 1.3. All assays used later in this section was HPLC method. Specific enzyme activity was expressed as unit per mg of protein. Protein concentrations were determined by Bio-Rad protein assay kit (Bio-Rad Co., Ltd., U.S.A.) with bovine serum albumin as a standard. Maximum specific enzyme activity (Vmax) and Michaelis constant (Km) were calculated from slope and intersection which were obtained by Lineweaver-Burk plot (Cf. M. Dixon and E. C. Webb, Enzymes, Longmans, London, 1958). Maximum specific enzyme activity of CC acylase N-176 was 100 and 3.1 units/mg for GL-7ACA and cephalosporin C, respectively.

[5] = Optimum temperature of the enzyme; type: biochemical; settings: 0.1M glycine buffer pH 9, 2 mg GL-7ACA, 2 min, 25° to 60° C.
Experimental: Reaction mixture (200 μl) containing 0.1M glycine buffer (pH 9), 2 mg of GL-7ACA and 2 μg of the enzyme were incubated for 2 min at various temperature from 25° to 60° C. The optimum temperature was 50° C.

Optimum pH of the enzyme = type: biochemical; settings: 0.1M buffers pH 6-10, 37° C., 2 min
Experimental: Reaction mixture (200 μl) containing 0.1M buffer (phosphate buffer between pH 6-8, Tris HCl buffer between pH 7-9 and glycine buffer between pH 8-10), 2 mg of GL-7ACA or 3.3 mg of cephalosporin C Li and 3 μg of the enzyme was used. The reaction was performed at 37° C. for 2 min. Optimum pH for the enzyme was 9.

[6] = Determination of isoelectric point (pI) by analytical isoelectric focusing; type: physicochemical; settings: 4% polyacrylamide gel, Ampholine pH range 3.5-10
Experimental: Analytical isoelectric focusing of CC acylase N-176 was performed according to the method of Olson et al(Cf.FEMS Microbiol. Lett. 1, 157-162(1977)). Purified acylase preparation was applied on thin layer of 4% polyacrylamide gel containing 2% Ampholine pH range 3.5-10 (Pharmacia LKB Biotechnology, Sweden). The proteins were electrofocused for 2 hours at 100 volts using isoelectric focusing apparatus SJ-1071EC (ATTO Co., Ltd., Japan). After electrofocusing, the gel was stained with Coomassie Brilliant Blue R-250 and the isoelectric point was determined from the calibration curve made with pI markers (Pharmacia LKB Technology) which were run simultaneously with the sample. The pI value of CC acylase N-176 was estimated to be 4.5.

[7] = inhibitor 0.1 mM, treated at 37° C. for 4 hours, substrate GL-7ACA
[8] = inhibitor 1.0 mM, treated at 37° C. for 4 hours, substrate GL-7ACA

CC(=O)OCC1=C(C(=O)O)N2C(=O)[C@@H](N)[C@H]2SC1 [7-ACA, 7-aminocephalosporanic acid]
mode of inhibition (CC acylase N-176 [1]): competitive | Ki (CC acylase N-176 [1]): 1400 µM

CC(=O)OCC1=C(C(=O)O)N2C(=O)[C@@H](NC(=O)CCC[C@@H](NC(=O)c3ccccc3)C(=O)O)[C@H]2SC1 [N-Benzyoylcephalosporin C, N-benzoylcephalosporin C]
Relative enzyme activity (CC acylase N-176 [2]): 0.0003%

CC(=O)OCC1=C(C(=O)O)N2C(=O)[C@@H](NC(=O)CCCCC(=O)O)[C@H]2SC1 [Adipyl 7ACA, 7(5-carboxypentanamido)-3-acetoxymethyl-3-cephem-4-carboxyli acid]
Relative enzyme activity (CC acylase N-176 [2]): 19%

CC(=O)OCC1=C(C(=O)O)N2C(=O)[C@@H](NC(=O)Cc3cccs3)[C@H]2SC1 [Cephalothin]
Relative enzyme activity (CC acylase N-176 [2]): 0.08%

CC(=O)N[C@H](CCCC(=O)N[C@@H]1C(=O)N2C(C(=O)O)=C(COC(C)=O)CS[C@H]12)C(=O)O [N-Acetylcephalosporin C]
Relative enzyme activity (CC acylase N-176 [2]): 0.1%

O=C(O)CN(CCN(CC(=O)O)CC(=O)O)CC(=O)O [EDTA, ethylenediaminetetraacetic acid]
Residual enzyme activity (%) (CC acylase N-176 [3]): 91% and 73%

CC(=O)OCC1=C(C(=O)O)N2C(=O)[C@@H](NC(=O)CCCC(=O)O)[C@H]2SC1 [Glutaryl 7ACA, 7(4-carboxybutanamdio)-3-acetoxymethyl-3-cephem-4-carboxylic acid]
Maximum specific enzyme activity (Vmax) (CC acylase N-176 [4]): 100 units/mg | Km (CC acylase N-176 [4]): 2.6 mM | Relative enzyme activity (CC acylase N-176 [2]): 100%

O=S(=O)(F)Cc1ccccc1 [PMSF, phenylmethylsulfonyl fluoride]
Residual enzyme activity (%) (CC acylase N-176 [3]; [7]): 96% | Residual enzyme activity (%) (CC acylase N-176 [3]; [8]): 91% | Residual enzyme activity (%) (CC acylase N-176 [3]; inhibitor 2.0 mM, treated at 37° C. for 4 hours, substrate GL-7ACA): 79% | Residual enzyme activity (%) (CC acylase N-176 [3]; inhibitor 5.0 mM, treated at 37° C. for 4 hours, substrate GL-7ACA): 62%

CC(=O)OCC1=C(C(=O)O)N2C(=O)[C@@H](NC(=O)CCC[C@@H](N)C(=O)O)[C@H]2SC1 [Cephalosporin C]
Maximum specific enzyme activity (Vmax) (CC acylase N-176 [4]): 3.1 units/mg | Km (CC acylase N-176 [4]): 4.8 mM | Relative enzyme activity (CC acylase N-176 [2]): 4%

O=C(O)c1cc[c]([Hg][Cl])cc1 [pCMB, p-chloromercuribenzoate]
Residual enzyme activity (%) (CC acylase N-176 [3]; [7]): 7.8% | Residual enzyme activity (%) (CC acylase N-176 [3]; [8]): 4.6%

CC(=O)OCC1=C(C(=O)O)N2C(=O)[C@@H](NC(=O)CCC(=O)O)[C@H]2SC1 [Succinyl 7ACA, 7(3-carboxypropionamido)-3-acetoxymethyl-3-cephem-4-carboxylic acid]
Relative enzyme activity (CC acylase N-176 [2]): 32%

O=C(O)CCCC(=O)O [glutaric acid]
mode of inhibition (CC acylase N-176 [1]): competitive | Ki (CC acylase N-176 [1]): 2500 µM

B1: CC acylase N-176: new cephalosporin C acylase derived from Pseudomonas diminuta N-176, composed of α and β subunits (protein)
chain: MTMAANTDRAVLQAALPPLSGSLPIPGLSASVRVRRDAWGIPHIKASGEADAYRALGFVHSQDRLFQMELTRRKALGRAAEWLGAEAAEADILVRRLGMEKVCRRDFEALGVEAKDMLRAYVAGVNAFLASGAPLPVEYGLLGAEPEPWEPWHSIAVMRRLGLLMGSVWFKLWRMLALPVVGAANALKLRYDDGGRDLLCIPPGAEADRLEADLATLRPAVDALLKAMGGDASDAAGGGSNNWAVAPGRTATGRPILAGDPHRVFEIPGMYAQHHLACDRFDMIGLTVPGVPGFPHFAHNGKVAYCVTHAFMDIHDLYLEQFAGEGRTARFGNDFEPVAWSRDRIAVRGGADREFDIVETRHGPVIAGDPRDGAALTLRSVQFAETDLSFDCLTRMPGASTVAQLYDATRGWGLIDHNLVAGDVAGSIGHLVRARVPSRPRENGWLPVPGWSGEHEWRGWIPHEAMPRVIDPPGGIIVTANNRVVADDHPDYLCTDCHPPYRAERIMKRLVANPAFAVDDAAAIHADTLSPHVGLLRRRLEALGARDDSAAEGLRQMLVAWDGRMDAASEVASAYNAFRRALTRLVTDRSGLEQAISHPFAAVAPGVSPQGQVWWAVPTLLRDDDAGMLKGWSWDQALSEALSVASQNLTGRSWGEEHRPRFTHPLATQFPAWAGLLNPASRPIGGDGDTVLANGLVPSAGPQATYGALSRYVFDVGNWDNSRWVVFHGASGHPASAHYADQNAPWSDCAMVPMLYSWDRIAAEAVTSQELVPA
optimum temperature [5]: 50 °C | Optimum pH (Optimum pH of the enzyme): 9 | pI value [6]: ~4.5
